# The SangsterLogP compilation
# Assay: method code SF-RC, from Fauchere, J.; Pliska, V. (1983). Hydrophobic parameters of aminoacid side chains from the partitioning of N-acetylaminoacid amides. Eur J Med Chem, 18(4)369-375.
# Conditions: pH 7.1
row,logD,Compound
1,-1.57,CC(=O)NC(C(N)=O)C(C)O (configuration not stated)
2,-0.03,CCC(C)C(NC(C)=O)C(N)=O (configuration not stated)
3,-1.34,CC(=O)N1CCC[C@H]1C(N)=O
4,-1.87,CC(=O)N[C@@H](CO)C(N)=O

# Further lines, the compound ahead of its results:
row,Compound,logD
1,CC(=O)N[C@@H](CC(N)=O)C(N)=O,-2.41
2,CC(=O)NC(CC12CC3CC(CC(C3)C1)C2)C(N)=O (configuration not stated),1.9
3,CC(=O)N[C@H](C(N)=O)C(C)C,-0.61
4,CC(=O)NC(CCC(N)=O)C(N)=O (configuration not stated),-2.05
5,CC(=O)N[C@@H](Cc1cnc[nH]1)C(N)=O,-1.7
6,CC(=O)N[C@@H](CC(C)C)C(N)=O,-0.13

# Assay: method code SF-CR+AS, from Fauchere, J.; Pliska, V. (1983). Hydrophobic parameters of aminoacid side chains from the partitioning of N-acetylaminoacid amides. Eur J Med Chem, 18(4)369-375.
# Conditions: pH 7.1
row,logD,Compound
1,-1.7,CC(=O)NC(=O)C(N)CSSCC(N)C(=O)NC(C)=O (configuration not stated)
2,-0.29,CC(=O)N[C@H](CS)C(N)=O
